Source: paper PMC8033486 (Frontiers in Pharmacology, 2021)
Where a name gives a salt, the structure may show the parent alone. Read-outs that look alike come from different tables or passages of the source. *1 amine or outer side, *2 acyl side, *3 side chain or, on linkers, in order; H or OH if unused. Where a SMILES comes first, the peptide text is derived from it. Bridges are numbered along the chain shown (N, C = ends). [ ]: non-standard residue; d: D form. The star is where a group is joined. X1 = CC[C@H](C)[C@@H](N[*:1])[C@@H](O)CC(=O)O[C@H](C(=O)[C@H](C)C(=O)[*:2])C(C)C; NMeY = CN[C@@H](Cc1ccc(O)cc1)C(=O)O; dNMeL = CN[C@H](CC(C)C)C(=O)O; Pyruvoyl = CC(=O)C(=O)*; Cbz = O=C(OCc1ccccc1)*

Columns and labels:
[1] = system: SARS-CoV-2; assay: microbe, parasite or virus in culture; assay type: cell-based
[2] = in vitro; settings: African green monkey
[3] = Vero E6, cytopathic effect 3 days after infection, repeated experiments
[4] = CC50, Vero E6, no virus, 3 days
[5] = Severe acute respiratory syndrome coronavirus 2, Vero C1008, 72 h, Vero E6, cytopathic effect 3 days after infection, repeated experiments, read-out: IC50 (Mean +/- SD)
[6] = Severe acute respiratory syndrome coronavirus 2, Vero C1008, Vero E6, one representative experiment with two replicates, when combined, each drug at the same concentration, read-out: IC50 value of the particular graph
[7] = Severe acute respiratory syndrome coronavirus 2, Vero C1008, 72 h, read-out: IC50 (Mean +/- SD)

Molecule	Inhibition of SARS-CoV-2-induced cytopathic effect, result in words ([1]; Vero E6)	CC50 at 3 days [2, 4] [µM]	other results
Nc1nc(=O)n([C@@H]2CS[C@H](CO)O2)cc1F [Emtricitabine]	failed to show any antiviral effect	> 100	IC50 (Mean +/- SD) [1, 3]: Not Active
OC(c1cc(C(F)(F)F)nc2c(C(F)(F)F)cccc12)C1CCCCN1 (stereo not shown) [Mefloquine hydrochloride]	–	> 100	–
Ivermectin	–	–	IC50 (Mean +/- SD) [1]: Not Active
CCN(CCO)CCCC(C)Nc1ccnc2cc(Cl)ccc12 (stereo not shown) [Hydroxychloroquine]	able to inhibit viral-induced cytopathic effects at concentrations where no cytotoxic effects of the drug were observed	> 80	IC50 [1, 5]: 9.3 ± 11.1 µM; IC50 [1, 6]: 2.1 µM
CN(C)C(=O)c1cc2cnc(Nc3ccc(N4CCNCC4)cn3)nc2n1C1CCCC1 [Ribociclib]	–	> 20	IC50 (Mean +/- SD) [1]: Not Active
CN(C)[C@@H]1C(O)=C(C(N)=O)C(=O)[C@@]2(O)C(O)=C3C(=O)c4c(O)c(NC(=O)CN5CCCC5)cc(F)c4C[C@H]3C[C@@H]12 [Eravacycline]	–	> 4	–
CC(C)OC(=O)[C@H](C)N[P@](=O)(CO[C@H](C)Cn1cnc2c(N)ncnc21)Oc1ccccc1 [Tenofovir Alafenamide]	–	–	IC50 (Mean +/- SD) [1]: Not Active; Inhibition of SARS-CoV-2-induced cytopathic effect, result in words [1]: failed to show any antiviral effect; CC50 [2]: > 100 µM
COc1c(O[C@@H]2O[C@H](CO)[C@@H](O)[C@H](O)[C@H]2O)cc2c(c1OC)-c1ccc(SC)c(=O)cc1[C@@H](NC(C)=O)CC2 [Thiocolchicoside]	–	–	IC50 (Mean +/- SD) [1]: Not Active
Methyl-ß-cyclodextrin	abrogate SARS-CoV-2 induced cytopathic effect	–	IC50 (Mean +/- SD) [1]: active at 1000
CCC(C)n1ncn(-c2ccc(N3CCN(c4ccc(OCC5COC(Cn6cncn6)(c6ccc(Cl)cc6Cl)O5)cc4)CC3)cc2)c1=O (stereo not shown) [Itraconazole]	–	> 100	IC50 [1, 5]: 79.4 µM; IC50 [1, 6]: 79.4 µM; IC50 ([1]; Vero E6, cytopathic effect 3 days after infection, repeated experiments, read-out: IC50 (Mean +/- SD)): 80 µM
CC(C)CN(C[C@@H](O)[C@H](Cc1ccccc1)NC(=O)O[C@H]1CCOC1)S(=O)(=O)c1ccc(N)cc1 [Amprenavir]	exhibited activity at the non-toxic concentration of 100 µM	–	CC50 at 3 days ([2]; CC50): > 100 µM
COC[C@H]1C[C@@H](c2ncc(-c3ccc4c(c3)COc3cc5c(ccc6nc([C@@H]7CC[C@H](C)N7C(=O)[C@@H](NC(=O)OC)C(C)C)[nH]c65)cc3-4)[nH]2)N(C(=O)[C@H](NC(=O)OC)c2ccccc2)C1 [Velpatasvir]	–	–	CC50 at 3 days ([2]; CC50): > 10 µM
Cc1cccc(C)c1OCC(=O)N[C@@H](Cc1ccccc1)[C@@H](O)C[C@H](Cc1ccccc1)NC(=O)[C@H](C(C)C)N1CCCNC1=O [Lopinavir]	inhibited SARS-CoV-2-induced cytopathic effect at the non-toxic concentration of 20 μM	> 87	–
interferon-γ [IFN stimulated antivirus proteins; granulomatous disease]	displayed antiviral activity	–	–
CC[C@H](C)[C@H]1NC(=O)[C@@H](NC(=O)[C@@H](CC(C)C)N(C)C(=O)[C@@H]2CCCN2C(=O)C(C)=O)[C@@H](C)OC(=O)[C@H](Cc2ccc(OC)cc2)N(C)C(=O)[C@@H]2CCCN2C(=O)[C@H](CC(C)C)NC(=O)[C@@H](C)C(=O)[C@H](C(C)C)OC(=O)C[C@@H]1O [Plitidepsin] (Pyruvoyl-P[dNMeL]T[X1]LP[NMeY](Me); ester 3-C)	always in nM concentrations	–	IC50 [1, 7]: 0.06 µM; IC50 [1, 6]: 0.05 µM; CC50 [2]: > 0.1 µM
CC(C)CN(C[C@@H](OP(=O)(O)O)[C@H](Cc1ccccc1)NC(=O)O[C@H]1CCOC1)S(=O)(=O)c1ccc(N)cc1 [Fosamprenavir Calcium]	–	> 25	–
CC(C)(C)NC(=O)[C@@H]1C[C@@H]2CCCC[C@@H]2CN1C[C@@H](O)[C@H](Cc1ccccc1)NC(=O)[C@H](CC(N)=O)NC(=O)c1ccc2ccccc2n1 [Saquinavir]	–	> 28	–
NC12CC3CC(CC(C3)C1)C2 [Amantadine]	only a partial inhibition at 100 μM	> 100	–
OC(Cn1cncn1)(Cn1cncn1)c1ccc(F)cc1F [Fluconazol]	–	> 100	–
NC(N)=Nc1nc(CSCCC(N)=NS(N)(=O)=O)cs1 [Famotidine]	–	> 100	IC50 (Mean +/- SD) [1, 3]: Not Active
COc1cc(C2Oc3cc([C@H]4Oc5cc(O)cc(O)c5C(=O)[C@@H]4O)ccc3OC2CO)ccc1O (stereo partly shown) [Silibinin]	–	> 20	–
CN(C)CCCN1c2ccccc2Sc2ccc(Cl)cc21 [Chlorpromazine]	we did not find any prominent effect	> 18	–
CC(=O)N[C@@H](CS)C(=O)O [N-Acetil cystein]	–	–	IC50 (Mean +/- SD) [1]: Not Active
CCS(=O)(=O)N1CC(CC#N)(n2cc(-c3ncnc4[nH]ccc34)cn2)C1 [Baricitinib]	–	–	CC50 [2]: > 85 µM

Molecule	Inhibition of SARS-CoV-2-induced cytopathic effect, result in words ([1]; Vero E6)	CC50 at 3 days [2, 4] [µM]	other results
O=C(Nc1ccc([N+](=O)[O-])cc1Cl)c1cc(Cl)ccc1O [Niclosamide]	failed to protected Vero E6 cells from SARS-CoV-2 induced cytopathic effect	> 9	–
CCCCOc1nc(N)c2c(n1)N(Cc1cccc(CN3CCCC3)c1)CC(=O)N2 [Vesatolimod]	not able to protect from the viral-induced cytopathic effect	> 20	–
COc1cc2c(c(OC)c1OC)-c1ccc(OC)c(=O)cc1[C@@H](NC(C)=O)CC2 [Colchicine]	–	–	CC50 [2]: 0.63 µM
CC(C)[C@H](NC(=O)OCc1ccccc1)C(=O)N[C@H](C=O)Cc1ccccc1 [MDL 28170] (Cbz-Val-Phe-aldehyde)	activity in the nanomolar range	–	IC50 [1, 7]: 0.14 µM; IC50 ([1]; Severe acute respiratory syndrome coronavirus 2, Vero C1008, read-out: IC50 value of the particular graph, Vero E6, one representative experiment with two replicates, when combined, each drug at the same concentration): 0.2 µM; CC50 [2]: > 87 µM
CCN(CC)CCCC(C)Nc1c2ccc(Cl)cc2nc2ccc(OC)cc12 (stereo not shown) [Quinacrine dihydrochloride]	–	> 6	–
N#Cc1ccccc1-c1cc(-c2ccccn2)cn(-c2ccccc2)c1=O [Perampanel]	–	–	IC50 (Mean +/- SD) [1]: Not Active
CC[C@H]1OC(=O)[C@H](C)[C@@H](O[C@H]2C[C@@](C)(OC)[C@@H](O)[C@H](C)O2)[C@H](C)[C@@H](O[C@@H]2O[C@H](C)C[C@H](N(C)C)[C@H]2O)[C@](C)(O)C[C@@H](C)CN(C)[C@H](C)[C@@H](O)[C@]1(C)O [Azithromycin]	–	> 100	–
Nc1ncnc2c([C@@H]3N[C@H](CO)[C@@H](O)[C@H]3O)c[nH]c12 [Galdesivir]	no antiviral effect	–	IC50 (Mean +/- SD) [1]: Not Active
CCOC(=O)C1=C(CN2CCOCC2)NC(c2nccs2)=NC1c1ccc(F)cc1Br (stereo not shown) [Morphothiadine]	–	–	IC50 (Mean +/- SD) [1]: Not Active
CC(C)OC(=O)[C@H](C)N[P@](=O)(OC[C@H]1O[C@@H](n2ccc(=O)[nH]c2=O)[C@](C)(F)[C@@H]1O)Oc1ccccc1 [Sofosbuvir]	–	–	IC50 (Mean +/- SD) [1]: Not Active; CC50 [2]: > 100 µM
CC(C)(C)NC(=O)N[C@H](C(=O)N1C[C@H]2[C@@H]([C@H]1C(=O)NC(CC1CCC1)C(=O)C(N)=O)C2(C)C)C(C)(C)C (stereo partly shown) [Boceprevir]	–	–	CC50 at 3 days ([2]; CC50): > 100 µM
Cc1c(O)cccc1C(=O)N[C@@H](CSc1ccccc1)[C@H](O)CN1C[C@H]2CCCC[C@H]2C[C@H]1C(=O)NC(C)(C)C [Nelfinavir mesylate hydrate]	–	> 25	IC50 [1, 5]: < 10 µM; IC50 [1, 6]: 1.4 µM
C[C@@H]1CCN(C(=O)CC#N)C[C@@H]1N(C)c1ncnc2[nH]ccc12 [Tofacitinib]	failed to protected Vero E6 cells from SARS-CoV-2 induced cytopathic effect	> 100	–
CCC[C@@]1(CCc2ccccc2)CC(O)=C([C@H](CC)c2cccc(NS(=O)(=O)c3ccc(C(F)(F)F)cn3)c2)C(=O)O1 [Tipranavir]	inhibited SARS-CoV-2-induced cytopathic effect at the non-toxic concentration of 20 μM	> 70	–
CCOC(=O)Cn1cccc1-c1nc(-c2ccc(OC)cc2)c(-c2ccc(OC)cc2)s1 [Pamicogrel]	–	–	CC50 at 3 days ([2]; CC50): 6.4 µM
CC(=O)N[C@H]1C([C@H](O)[C@H](O)CO)O[C@@](O[C@@H]2C(O)[C@H](O[C@@H]3C(CO)OC(O)C(O)[C@H]3O)OC(CO)[C@@H]2O)(C(=O)[O-])C[C@H]1O.[Na+] (stereo partly shown) [3’ Sialyllactose Na Salt]	not able to reduce viral-induced cytopathic effect	–	–
CC1SCC(C(=O)NC(Cc2cnc[nH]2)C(=O)N2CCCC2C(N)=O)NC1=O.O=C(O)C(F)(F)F (stereo not shown) [Montirelin trifluoroacetate salt]	–	–	IC50 (Mean +/- SD) [1]: Not Active
CC(C)CN(C[C@@H](O)[C@H](Cc1ccccc1)NC(=O)O[C@H]1CO[C@H]2OCC[C@H]21)S(=O)(=O)c1ccc(N)cc1 [Darunavir]	–	–	IC50 (Mean +/- SD) [1]: partially active at 100
CC(=O)c1c(C)c2cnc(Nc3ccc(N4CCNCC4)cn3)nc2n(C2CCCC2)c1=O [Palbociclib]	–	2.7	–
O=C(O)c1nn(Cc2ccc(Cl)cc2Cl)c2ccccc12 [Diclondazolic acid (Lonidamine), Diclondazolic acid]	–	–	IC50 (Mean +/- SD) [1]: Not Active
NC(=O)c1nc(F)c[nH]c1=O [Favipiravir]	only partial inhibitory activity at the non-toxic concentration of 100 µM	–	CC50 at 3 days ([2]; CC50): > 100 µM
C[C@H]1c2cccc(O)c2C(=O)C2=C(O)[C@]3(O)C(=O)C(C(N)=O)=C(O)[C@@H](N(C)C)[C@@H]3[C@@H](O)[C@@H]21 [Doxycycline]	–	> 100	–
Laflunimus Sodium Salt	–	–	IC50 (Mean +/- SD) [1]: Not Active
